{"source": "patent US12383579B2", "about": "“Materials and methods of using an inhibitor of plasminogen activation to treat anastomotic leak” (THE UNIVERSITY OF CHICAGO, priority 2018, dated 2025)", "key": {"[1]": {"test_system": "E. faecalis", "experiment": "Intrinsic bacterial type IV collagen degradation in the absence of PLG", "assay_type": "biochemical, Enterococcus faecalis", "protocol": "(§1) Collagen degradation. Assays were performed per the manufacturer's instructions as previously described with slight modifications (51′). Bacteria were grown overnight in TY. Optical density was normalized to 0.1 through dilution. Bacteria were then incubated with fluorescein-labeled type I collagen, type IV collagen, or gelatin according to the manufacturer's instructions (ThermoFisher), human PLG at 250 nM and TXA. Total reaction volume was 200 L. The incubation proceeded at 37° C. for 5 hours to allow for bacterial attachment to collagen and PLG binding. uPA was added and the incubation proceeded for an additional hour. Change in fluorescence over time at 480/520 nm was determined kinetically over the initial 30 minutes of the reaction."}, "[2]": {"target": "PLG with uPA and pro-MMP9 (Homo sapiens, UniProt P00747)", "sequence (P00747 20-810 limits assumed)": "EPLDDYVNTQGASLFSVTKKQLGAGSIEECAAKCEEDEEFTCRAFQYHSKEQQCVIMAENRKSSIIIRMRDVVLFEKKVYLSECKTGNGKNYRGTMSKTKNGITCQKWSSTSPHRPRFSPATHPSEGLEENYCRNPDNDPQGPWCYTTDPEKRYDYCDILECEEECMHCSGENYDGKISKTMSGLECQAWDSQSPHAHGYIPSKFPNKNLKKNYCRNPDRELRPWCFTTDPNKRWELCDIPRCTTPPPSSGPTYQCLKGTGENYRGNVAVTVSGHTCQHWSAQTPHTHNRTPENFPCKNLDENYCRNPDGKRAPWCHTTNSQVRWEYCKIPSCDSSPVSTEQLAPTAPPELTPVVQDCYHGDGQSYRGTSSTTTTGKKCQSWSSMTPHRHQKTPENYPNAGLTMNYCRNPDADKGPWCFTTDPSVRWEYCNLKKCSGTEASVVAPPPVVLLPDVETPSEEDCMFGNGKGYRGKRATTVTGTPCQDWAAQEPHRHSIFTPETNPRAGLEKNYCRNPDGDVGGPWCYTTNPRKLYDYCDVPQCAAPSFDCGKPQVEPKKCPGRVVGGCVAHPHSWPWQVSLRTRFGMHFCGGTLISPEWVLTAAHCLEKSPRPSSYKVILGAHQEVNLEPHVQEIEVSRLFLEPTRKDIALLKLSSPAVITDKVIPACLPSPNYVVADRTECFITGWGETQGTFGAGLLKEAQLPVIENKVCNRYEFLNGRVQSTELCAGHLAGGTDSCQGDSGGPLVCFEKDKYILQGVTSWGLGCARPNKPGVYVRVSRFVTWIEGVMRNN", "experiment": "Collagen/gelatin degradation by PLG, uPA and pro-MMP9 in a sterile system", "assay_type": "biochemical", "protocol": "as §1"}, "[3]": {"test_system": "type IV collagen degradation by V583", "experiment": "Type IV collagen degradation by E. faecalis V583 with PLG and uPA", "assay_type": "biochemical, Enterococcus faecalis", "method": "Collagen degradation. Assays were performed per the manufacturer's instructions as previously described with slight modifications (51′). Bacteria were grown overnight in TY. Optical density was normalized to 0.1 through dilution. […] Total reaction volume was 200 L. The incubation proceeded at 37° C. for 5 hours to allow for bacterial attachment to collagen and PLG binding. uPA was added and the incubation proceeded for an additional hour. Change in fluorescence over time at 480/520 nm was determined kinetically over the initial 30 minutes of the reaction."}, "[4]": {"test_system": "RAW macrophages", "experiment": "Collagen degradation by RAW macrophages given RAW/E44s conditioned media", "assay_type": "cell-based, murine", "details": "TXA 10 mM, PLG 250 nm, MMP9 1 nM, 4 hours", "method": "FIG. 16. […] (A), E. faecalis E44 was grown in TY media overnight, and cell-free conditioned media (E44s) was applied to RAW macrophages for 4 hours. PLG, 250 nm, was included in the reaction. […] PLG activation was measured by fluorogenic substrate cleavage. “RAW” column is naïve RAW. *p<0.05, n=6/group. (B), Conditioned media after co-interaction of macrophages with E. faecalis E44 (named RAW/E44s) was applied to naïve RAW macrophages for 4 hours. PLG, 250 nm, and MMP9, 1 nM, were in all reactions. […] “RAW+RAWs” column is naïve macrophages incubated with conditioned media of RAW macrophages (no E. faecalis E44). *p<0.05, n=6/group.\nIt was then tested whether macrophage collagen degradation activity is enhanced by stimulation with E. faecalis. Conditions from the above experiment (RAW/E44 s) with naïve RAW macrophages were used. PLG and MMP9 were included in the reaction. Degradation of collagen was enhanced by secreted factors produced during the co-interaction of RAW and E44s. […] Finally, to investigate the mechanism of PLG activation by E. faecalis, a parent collagenolytic strain isolated from a patient with AL (V583) was used, along with its mutant derivative (DDGelE/Spr) with secretory collagenolytic factors serine protease (Spr) and gelatinase (GelE) genetically removed. […]"}, "[5]": {"test_system": "E. faecalis E44-induced AL", "experiment": "Mouse model of E44-induced anastomotic leak", "assay_type": "in vivo, C57BL/6 mice", "method": "The role of activated plasminogen (PLG) in anastomotic leak. […] Co-incubation of E44 with murine macrophages ([…]) was performed for studies involving conditioned media. Twenty-week-old male C57BL/6 mice underwent the validated model of E44-induced AL that includes preoperative antibiotics to defaunate the colon, surgical transection and anastomosis of the colon and introduction of E44 in 10% glycerol to the surgical site via rectal enema on postoperative day 1. […] Anastomotic healing was assessed blindly using a validated anastomotic healing score (AHS): 0=uncomplicated healing, 1=flimsy adhesions, 2=dense adhesions, 3=abscess, and 4=gross anastomotic disruption. AL was defined as AHS 3 or above."}, "[6]": {"target": "T1, P. aeruginosa MPAO1-P2 plasminogen activation (Homo sapiens, UniProt P00747)", "T1 construct": "250 nM human glu-plasminogen (Haematologic technologies); purchased Haematologic technologies", "T1 sequence (P00747 20-810)": "as the sequence (P00747 20-810 limits assumed) above", "experiment": "PLG activation by P. aeruginosa", "assay_type": "biochemical", "details": "TY 1:1 with PBS (10 mM phosphate), or water plus 10 mM TXA, versus water alone", "method": "Plasminogen/uPA activity. Plasmin activity assays were performed as previously described with minor modifications, and fluorescence data was analyzed per the manufacturer's instructions (50′). Incubation times were optimized for bacteria at low optical density to limit internal filter effects in fluorescence-based assays. Bacteria (when included) were grown overnight in TY media. OD600 was normalized by dilution to 0.1, equivalent to 8×10^7 CFU/mL. Samples at OD 0.1 were diluted 1:10 in the final reaction through the addition of media and dissolved substrates. Bacteria were incubated with 250 nM human glu-plasminogen (Haematologic technologies) for two hours at 37° C. TXA (Fisher) was added concomitantly with PLG. A final concentration of 4 nM uPA (Biovision) or pro-uPA (Biovision) was added and incubation proceeded for 20 minutes. A final concentration of 6 M fluorogenic substrate specific for plasmin (H-D-Val-Leu-Lys-AFC, AnaSpec) was added immediately prior to a kinetic fluorescent read with excitation wavelength 380 nm and emission wavelength 500 nm. Reads were conducted every 15 to 30 seconds over the course of 30 minutes. For assays of uPA activity, PLG was omitted from the incubation and a substrate specific to uPA (Z-Gly-Gly-Arg-AMC, Bachem) was used. When assays were performed in human plasma, fluorescence was read for 120 minutes total. […]"}}, "data": [{"smiles": "NC[C@H]1CC[C@H](C(=O)O)CC1", "note": "[TXA, tranexamic acid]", "values": [{"measurement": "intrinsic bacterial type IV collagen degradation activity", "setting": "[1]", "value": "no effect"}, {"measurement": "gelatin / type IV collagen degrading activity of PLG with uPA and pro-MMP9", "setting": "[2]", "value": "inhibited in a concentration-dependent manner"}, {"measurement": "type IV collagen degradation by V583 with PLG and uPA", "setting": "[3]; V583, PLG, uPA and TXA", "value": "concentration-dependent inhibition"}, {"measurement": "reduction of bacterial collagen degradation", "setting": "[3]; same concentration levels as for PLG activation (FIG. 23)", "value": "over 80%"}, {"measurement": "collagen degradation by macrophages given RAW/E44s conditioned media", "setting": "[4]", "value": "attenuated"}, {"measurement": "overall healing (AHS) compared to vehicle control", "setting": "[5]; TXA 0.75 mg/kg rectal enema POD 1, 2 and 3, POD 8", "value": "significantly superior"}, {"measurement": "mean anastomotic healing score (AHS)", "setting": "[5]; TXA 0.75 mg/kg rectal enema, scored postoperative day 8, vehicle 2.8", "value": 1.4}, {"measurement": "PLG activation by P. aeruginosa", "setting": "[6]", "value": "significantly attenuated"}, {"measurement": "PLG activation by P. aeruginosa", "setting": "[6]; listed as Tranexamic acid", "value": "inhibits"}]}]}
